Several values for one entry are separate records, joined by “and”; a condition that tells them apart may be missing. Equal entries are not always repeated.
Organism: Rattus norvegicus
Experiment: DrugMatrix - Regimen: Daily Repeat
Type: toxicity, organism-based, Sprague-Dawley
Parameters: regimen Daily Repeat, gender Male, age 6-8 weeks
Conditions: in vivo, po, 0 mg/kg, route oral GAVAGE, dose level Control, vehicle .5 % CMC; for BASOPHIL / EOSINOPHIL / ERYTHROCYTE COUNT / HEMATOCRIT / HEMOGLOBIN / LEUKOCYTE COUNT / LYMPHOCYTE / MEAN CORPUSCULAR HEMOGLOBIN / MEAN CORPUSCULAR HEMOGLOBIN CONCENTRATION / MEAN CORPUSCULAR VOLUME / MONOCYTE / NEUTROPHIL / PLATELET COUNT / ABSOLUTE BASOPHIL / ABSOLUTE EOSINOPHIL / ABSOLUTE LYMPHOCYTE / ABSOLUTE MONOCYTE / ABSOLUTE SEGMENTED NEUTROPHIL: tissue Blood; for ALANINE AMINOTRANSFERASE / ALBUMIN / ALKALINE PHOSPHATASE / ASPARTATE AMINOTRANSFERASE / BLOOD UREA NITROGEN / CHLORIDE / CHOLESTEROL / CREATINE PHOSPHOKINASE / CREATININE / GLUCOSE / PHOSPHORUS / POTASSIUM / SODIUM / TOTAL BILIRUBIN / TOTAL PROTEIN / LACTATE DEHYDROGENASE / LIPASE / URIC ACID: tissue Plasma

## Cc1ccc2cc3c(ccc4ccccc43)c3c2c1CC3 [3-METHYLCHOLANTHRENE]
72 h, time 3 day
  BASOPHIL: 0.52%
  EOSINOPHIL: 0.48%
  ERYTHROCYTE COUNT: 6.68 x10E6/uL
  HEMATOCRIT: 43.07%
  HEMOGLOBIN: 13.48 G/DL
  LEUKOCYTE COUNT: 11.41 x10E3/uL
  LYMPHOCYTE: 80.78%
  MEAN CORPUSCULAR HEMOGLOBIN: 20.2 pg
  MEAN CORPUSCULAR HEMOGLOBIN CONCENTRATION: 31.32 G/DL
  MEAN CORPUSCULAR VOLUME: 64.45 fL
  MONOCYTE: 2.23%
  NEUTROPHIL: 14.73%
  PLATELET COUNT: 1225.83 x10E3/uL
  ALANINE AMINOTRANSFERASE: 44.5 u/L
  ALBUMIN: 3.62 G/DL
  ALKALINE PHOSPHATASE: 404.5 u/L
  ASPARTATE AMINOTRANSFERASE: 71.67 u/L
  BLOOD UREA NITROGEN: 15 mg/dL
  CHLORIDE: 103 MEQ/L
  CHOLESTEROL: 96.83 mg/dL
  CREATINE PHOSPHOKINASE: 236 u/L
  CREATININE: 0.43 mg/dL
  GLUCOSE: 186.83 mg/dL
  PHOSPHORUS: 12.67 mg/dL
  POTASSIUM: 7.1 MEQ/L
  SODIUM: 147.33 MEQ/L
  TOTAL BILIRUBIN: 0.52 mg/dL
  TOTAL PROTEIN: 6.18 G/DL
120 h, time 5 day
  ABSOLUTE BASOPHIL: 92 cells/µL
  ABSOLUTE EOSINOPHIL: 52 cells/µL
  ABSOLUTE LYMPHOCYTE: 6560 cells/µL
  ABSOLUTE MONOCYTE: 160 cells/µL
  ABSOLUTE SEGMENTED NEUTROPHIL: 1130 cells/µL
  BASOPHIL: 1.14% and 0.92%
  EOSINOPHIL: 0.68% and 0.43%
  ERYTHROCYTE COUNT: 7.51 x10E6/uL and 7.03 x10E6/uL
  HEMATOCRIT: 46.04% and 46.55%
  HEMOGLOBIN: 15.62 G/DL and 14.32 G/DL
  LEUKOCYTE COUNT: 8.03 x10E3/uL and 12.22 x10E3/uL
  LYMPHOCYTE: 81.54% and 82.65%
  MEAN CORPUSCULAR HEMOGLOBIN: 20.84 pg and 20.35 pg
  MEAN CORPUSCULAR HEMOGLOBIN CONCENTRATION: 33.94 G/DL and 30.77 G/DL
  MEAN CORPUSCULAR VOLUME: 61.42 fL and 66.28 fL
  MONOCYTE: 2% and 2.28%
  NEUTROPHIL: 14.24% and 12.73%
  PLATELET COUNT: 1427.2 x10E3/uL and 1268.67 x10E3/uL
  ALANINE AMINOTRANSFERASE: 35.6 u/L and 44.5 u/L
  ALBUMIN: 3.64 G/DL and 3.73 G/DL
  ALKALINE PHOSPHATASE: 233 u/L and 340.83 u/L
  ASPARTATE AMINOTRANSFERASE: 81 u/L and 66.5 u/L
  BLOOD UREA NITROGEN: 12 mg/dL and 13.33 mg/dL
  CHLORIDE: 109.4 MEQ/L and 102.17 MEQ/L
  CHOLESTEROL: 47.6 mg/dL and 82.17 mg/dL
  CREATINE PHOSPHOKINASE: 183.2 u/L and 146.67 u/L
  CREATININE: 0.4 mg/dL and 0.35 mg/dL
  GLUCOSE: 134.6 mg/dL and 186.17 mg/dL
  LACTATE DEHYDROGENASE: 89.4 u/L
  LIPASE: 17.2 u/L
  PHOSPHORUS: 13.02 mg/dL and 11.83 mg/dL
  POTASSIUM: 7 MEQ/L and 6.47 MEQ/L
  SODIUM: 149.6 MEQ/L and 148.83 MEQ/L
  TOTAL PROTEIN: 6.06 G/DL and 6.27 G/DL
  URIC ACID: 1.04 mg/dL
2184 h, time 91 day
  ABSOLUTE BASOPHIL: 130 cells/µL
  ABSOLUTE EOSINOPHIL: 70 cells/µL
  ABSOLUTE LYMPHOCYTE: 8670 cells/µL
  ABSOLUTE MONOCYTE: 160 cells/µL
  ABSOLUTE SEGMENTED NEUTROPHIL: 1530 cells/µL
  BASOPHIL: 1.13%
  EOSINOPHIL: 0.66%
  ERYTHROCYTE COUNT: 9.13 x10E6/uL
  HEMATOCRIT: 48.47%
  HEMOGLOBIN: 16.56 G/DL
  LEUKOCYTE COUNT: 10.5 x10E3/uL
  LYMPHOCYTE: 81.63%
  MEAN CORPUSCULAR HEMOGLOBIN: 18.16 pg
  MEAN CORPUSCULAR HEMOGLOBIN CONCENTRATION: 34.14 G/DL
  MEAN CORPUSCULAR VOLUME: 53.14 fL
  MONOCYTE: 1.53%
  NEUTROPHIL: 14.71%
  PLATELET COUNT: 1280.22 x10E3/uL
  ALANINE AMINOTRANSFERASE: 28.89 u/L
  ALBUMIN: 3.69 G/DL
  ALKALINE PHOSPHATASE: 101.11 u/L
  ASPARTATE AMINOTRANSFERASE: 70.67 u/L
  BLOOD UREA NITROGEN: 16.78 mg/dL
  CHLORIDE: 104.56 MEQ/L
  CHOLESTEROL: 58.78 mg/dL
  CREATINE PHOSPHOKINASE: 91.22 u/L
  CREATININE: 0.61 mg/dL
  GLUCOSE: 142.33 mg/dL
  LACTATE DEHYDROGENASE: 81.67 u/L
  LIPASE: 13 u/L
  PHOSPHORUS: 7.54 mg/dL
  POTASSIUM: 6.27 MEQ/L
  SODIUM: 149.89 MEQ/L
  TOTAL BILIRUBIN: 0.19 mg/dL
  TOTAL PROTEIN: 7.12 G/DL
  URIC ACID: 0.97 mg/dL
[…], time 28 day
  ABSOLUTE BASOPHIL: 150 cells/µL
  ABSOLUTE EOSINOPHIL: 54 cells/µL
  ABSOLUTE LYMPHOCYTE: 8890 cells/µL
  ABSOLUTE MONOCYTE: 190 cells/µL
  ABSOLUTE SEGMENTED NEUTROPHIL: 2250 cells/µL
  BASOPHIL: 1.26%
  EOSINOPHIL: 0.46%
  ERYTHROCYTE COUNT: 8.34 x10E6/uL
  HEMATOCRIT: 48.66%
  HEMOGLOBIN: 16.04 G/DL
  LEUKOCYTE COUNT: 11.58 x10E3/uL
  LYMPHOCYTE: 76.74%
  MEAN CORPUSCULAR HEMOGLOBIN: 19.2 pg
  MEAN CORPUSCULAR HEMOGLOBIN CONCENTRATION: 32.92 G/DL
  MEAN CORPUSCULAR VOLUME: 58.32 fL
  MONOCYTE: 1.76%
  NEUTROPHIL: 19.44%
  PLATELET COUNT: 1282.6 x10E3/uL
  ALANINE AMINOTRANSFERASE: 27 u/L
  ALBUMIN: 3.68 G/DL
  ALKALINE PHOSPHATASE: 146.2 u/L
  ASPARTATE AMINOTRANSFERASE: 66.6 u/L
  BLOOD UREA NITROGEN: 12.4 mg/dL
  CHLORIDE: 104.6 MEQ/L

Reference: ChEMBL document CHEMBL3885881, “DrugMatrix”
